Experimental data taken from patent EP1283052A1, “Pharmaceutical composition containing caspase-8 and /or caspase-9 useful for overcoming glucocorticoid- and cancer therapy-induced apoptosis of tumours” (Deutsches Krebsforschungszentrum Stiftung des öffentlichen …, priority 2001, dated 2003).

Assays:
[1] = tested on: P693 lung carcinoma xenografts; assay: P693 lung carcinoma xenografts in nude mice, tumour volume; format: in vivo; conditions: cisplatin 5mg/kg/week intraperitoneally for five weeks, absence of DEX; Fig. 1a
Experimental: (§1) • (a) Human epidermoid lung cancer cells (P693) were injected into nude mice. At a tumour volume of 500 mm^3 weekly treatment with cisplatin (5mg/kg/week) was started. Cisplatin was injected intraperitoneally in the absence (CIS) or presence (DEX/CIS) of DEX which was added to the drinking water (0.28 mg/L) for the duration of the experiment. […] As controls, tumor growth of xenografts from mice which received neither cisplatin nor DEX (CO) or from mice which received DEX only (DEX) was determined. The tumour volume in each animal was measured at weekly intervals for a period of 5 weeks. Data are presented as the means +/- SD of 6 to 8 animals. • (b) The human cervical carcinoma cell lines HeLa and P5 were γ-irradiated (10 Gy) or treated with cisplatin (2 µg/ml) in the absence (white bars) or presence (black bars) of DEX (1 µM). The percentage of apoptosis was measured in untreated (CO) and stimulated cells by annexin-staining and FACS-analysis at the time points indicated. (c) P5, P693 and human leukemic T cells (CEM) cells were treated with cisplatin (2 µg/ml) in the absence or presence of DEX as indicated. 24 and 48 h following treatment cells were lysed and caspase-3 activity was determined by a fluorescent caspase-3 assay and spectroscopy.

[2] = tested on: P5 and HeLa cervix carcinoma cells; assay: Apoptosis by annexin-V/FITC staining and flow cytometry in cervix carcinoma cells; format: cell-based, human; conditions: cisplatin 2 µg/ml, absence of DEX, 24-72 h; Fig. 1b
Experimental: as §1

[3] = tested on: caspase-8; assay: Fluorometric caspase-8 activity assay in P693 cells; format: cell-based, human; conditions: cisplatin 2 µg/ml alone, Fig. 2b
Experimental: • (a) Left: P5 an CEM cells were treated with cisplatin (1-5 µg/ml) in the absence or presence of DEX (1 µM) as indicated. Proteins were extracted and expression of CD95-L, TRAIL or TNF-α was detected by Western blot analysis. The size of the proteins in kDa is indicated. Right: HeLa and P5 were treated with CD95 agonistic antibody αAPO-1 (CD95, 1 µg/ml), recombinant TRAIL protein (TRAIL, 100 ng/ml) or recombinant TNF-α protein (TNF-α, 100 ng/ml) in the absence (white bars) or presence (black bars) of DEX (1 µM). 24 h later the percentage of apoptosis was determined by annexin-staining and FACS-analysis in untreated (CO) and stimulated cells at the time points indicated. • (b) P693 and CEM cells were treated with cisplatin (2 µg/ml) in the absence or presence of DEX as indicated. 24 and 48 h following treatment cells were lysed and caspase-8 activity was determined by a fluorescent caspase-8 assay and spectroscopy. • (c) P5 cells were stable transfected with empty vector (pcDNA3), or pcDNA3 vector encoding dominant negative FADD protein (FADD-DN). Proteins were extracted from both cell lines and expression of wildtype (WT) and FADD-DN (DN) was detected by Western blot. Left: Stable transfected P5 cells were treated with αAPO-1 (1 µg/ml) and 24 h later apoptosis was determined by staining with annexin/propidium iodide and flow-cytometry. […]

N.N.[Cl][Pt][Cl] [cisplatin]
tumour growth [1]: profound reduction of tumour growth | apoptosis [2]: detectable 24 h following treatment and increased during the next 48 and 72 h | activity of caspase-8 [3]: induced 48 h following treatment
